Assay results as given in PubChem BioAssay (NCI).
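48-hour exposure; five concentrations; linearly interpolated endpoints. At the TGI there is no net growth.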

Assays:
Experiment in all cases: NCI-60 cell line screen, 48 h
HCT-116 colon = system: HCT-116 colon
UACC-62 melanoma = system: UACC-62 melanoma
HS 578T breast = system: HS 578T breast
HOP-92 NSCLC = system: HOP-92 NSCLC
MCF7 breast = system: MCF7 breast
SK-MEL-5 melanoma = system: SK-MEL-5 melanoma
HCC-2998 colon = system: HCC-2998 colon
LOX IMVI melanoma = system: LOX IMVI melanoma
A549 NSCLC = system: A549 NSCLC
EKVX NSCLC = system: EKVX NSCLC
SF-539 CNS = system: SF-539 CNS
HL-60(TB) leukemia = system: HL-60(TB) leukemia
NCI-H460 lung = system: NCI-H460 lung
SW-620 colon = system: SW-620 colon
K-562 leukemia = system: K-562 leukemia
COLO 205 colon = system: COLO 205 colon
SK-OV-3 ovarian = system: SK-OV-3 ovarian
UO-31 renal = system: UO-31 renal
DU-145 prostate = system: DU-145 prostate
U251 CNS = system: U251 CNS
OVCAR-8 ovarian = system: OVCAR-8 ovarian
BT-549 breast = system: BT-549 breast
HCT-15 colon = system: HCT-15 colon
CAKI-1 renal = system: CAKI-1 renal
SF-295 CNS = system: SF-295 CNS
SNB-75 CNS = system: SNB-75 CNS
MOLT-4 leukemia = system: MOLT-4 leukemia
SF-268 CNS = system: SF-268 CNS
MALME-3M melanoma = system: MALME-3M melanoma
T-47D breast = system: T-47D breast
NCI-H23 lung = system: NCI-H23 lung
OVCAR-4 ovarian = system: OVCAR-4 ovarian
PC-3 prostate = system: PC-3 prostate
TK-10 renal = system: TK-10 renal
SK-MEL-28 melanoma = system: SK-MEL-28 melanoma
HT29 colon = system: HT29 colon
MDA-MB-435 = system: MDA-MB-435
ACHN renal = system: ACHN renal
M14 melanoma = system: M14 melanoma
HOP-62 NSCLC = system: HOP-62 NSCLC
RPMI-8226 leukemia = system: RPMI-8226 leukemia
MDA-MB-231 breast = system: MDA-MB-231 breast
NCI/ADR-RES ovarian = system: NCI/ADR-RES ovarian
CCRF-CEM leukemia = system: CCRF-CEM leukemia
OVCAR-3 ovarian = system: OVCAR-3 ovarian
786-0 renal = system: 786-0 renal
KM12 colon = system: KM12 colon
SN12C renal = system: SN12C renal
UACC-257 melanoma = system: UACC-257 melanoma
RXF 393 renal = system: RXF 393 renal
MDA-N = system: MDA-N
SK-MEL-2 melanoma = system: SK-MEL-2 melanoma
NCI-H226 lung = system: NCI-H226 lung
SNB-19 CNS = system: SNB-19 CNS
OVCAR-5 ovarian = system: OVCAR-5 ovarian
NCI-H522 lung = system: NCI-H522 lung
IGROV1 ovarian = system: IGROV1 ovarian

## Cc1nc2cc(F)c(F)cc2[nH]c1=O
HCT-116 colon
  TGI: > 100 µM
UACC-62 melanoma
  TGI: > 100 µM
HS 578T breast
  TGI: > 100 µM
HOP-92 NSCLC
  TGI: > 100 µM
MCF7 breast
  TGI: > 100 µM
SK-MEL-5 melanoma
  TGI: > 100 µM
HCC-2998 colon
  TGI: > 100 µM
LOX IMVI melanoma
  TGI: > 100 µM
A549 NSCLC
  TGI: > 100 µM
EKVX NSCLC
  TGI: > 100 µM
SF-539 CNS
  TGI: > 100 µM
HL-60(TB) leukemia
  TGI: > 100 µM
NCI-H460 lung
  TGI: > 100 µM
SW-620 colon
  TGI: > 100 µM
K-562 leukemia
  TGI: > 100 µM
COLO 205 colon
  TGI: > 100 µM
SK-OV-3 ovarian
  TGI: > 100 µM
UO-31 renal
  TGI: > 100 µM
DU-145 prostate
  TGI: > 100 µM
U251 CNS
  TGI: > 100 µM
OVCAR-8 ovarian
  TGI: > 100 µM
BT-549 breast
  TGI: > 100 µM
HCT-15 colon
  TGI: > 100 µM
CAKI-1 renal
  TGI: > 100 µM
SF-295 CNS
  TGI: > 100 µM
SNB-75 CNS
  TGI: > 100 µM
MOLT-4 leukemia
  TGI: > 100 µM
SF-268 CNS
  TGI: > 100 µM
MALME-3M melanoma
  TGI: > 100 µM
T-47D breast
  TGI: > 100 µM
NCI-H23 lung
  TGI: > 100 µM
OVCAR-4 ovarian
  TGI: > 100 µM
PC-3 prostate
  TGI: > 100 µM
TK-10 renal
  TGI: > 100 µM
SK-MEL-28 melanoma
  TGI: > 100 µM
HT29 colon
  TGI: > 100 µM
MDA-MB-435
  TGI: > 100 µM
ACHN renal
  TGI: > 100 µM
M14 melanoma
  TGI: > 100 µM
HOP-62 NSCLC
  TGI: > 100 µM
RPMI-8226 leukemia
  TGI: > 100 µM
MDA-MB-231 breast
  TGI: > 100 µM
NCI/ADR-RES ovarian
  TGI: > 100 µM
CCRF-CEM leukemia
  TGI: > 100 µM
OVCAR-3 ovarian
  TGI: > 100 µM
786-0 renal
  TGI: > 100 µM
KM12 colon
  TGI: > 100 µM
SN12C renal
  TGI: > 100 µM
UACC-257 melanoma
  TGI: > 100 µM
RXF 393 renal
  TGI: > 100 µM
MDA-N
  TGI: > 100 µM
SK-MEL-2 melanoma
  TGI: > 100 µM
NCI-H226 lung
  TGI: > 100 µM
SNB-19 CNS
  TGI: > 100 µM
OVCAR-5 ovarian
  TGI: > 100 µM

## N#C/C(=C/C=C/c1ccco1)C(N)=O
HS 578T breast
  TGI: > 10 µM
MCF7 breast
  TGI: > 10 µM
SK-MEL-5 melanoma
  TGI: > 10 µM
HCC-2998 colon
  TGI: > 10 µM
LOX IMVI melanoma
  TGI: > 10 µM
EKVX NSCLC
  TGI: > 10 µM
SF-539 CNS
  TGI: > 10 µM
NCI-H460 lung
  TGI: > 10 µM
SW-620 colon
  TGI: > 10 µM
NCI-H522 lung
  TGI: > 10 µM
COLO 205 colon
  TGI: > 10 µM
SK-OV-3 ovarian
  TGI: > 10 µM
UO-31 renal
  TGI: > 10 µM
DU-145 prostate
  TGI: > 10 µM
U251 CNS
  TGI: > 10 µM
OVCAR-8 ovarian
  TGI: > 10 µM
HCT-15 colon
  TGI: > 10 µM
CAKI-1 renal
  TGI: > 10 µM
SF-295 CNS
  TGI: > 10 µM
SNB-75 CNS
  TGI: > 10 µM
SF-268 CNS
  TGI: > 10 µM
MALME-3M melanoma
  TGI: > 10 µM
T-47D breast
  TGI: > 10 µM
PC-3 prostate
  TGI: > 10 µM
TK-10 renal
  TGI: > 10 µM
SK-MEL-28 melanoma
  TGI: > 10 µM
HT29 colon
  TGI: > 10 µM
MDA-MB-435
  TGI: > 10 µM
ACHN renal
  TGI: > 10 µM
M14 melanoma
  TGI: > 10 µM
HOP-62 NSCLC
  TGI: > 10 µM
MDA-MB-231 breast
  TGI: > 10 µM
NCI/ADR-RES ovarian
  TGI: > 10 µM
OVCAR-3 ovarian
  TGI: > 10 µM
786-0 renal
  TGI: > 10 µM
KM12 colon
  TGI: > 10 µM
SN12C renal
  TGI: > 10 µM
RXF 393 renal
  TGI: > 10 µM
MDA-N
  TGI: > 10 µM
SK-MEL-2 melanoma
  TGI: > 10 µM
NCI-H226 lung
  TGI: > 10 µM
OVCAR-5 ovarian
  TGI: > 10 µM
IGROV1 ovarian
  TGI: > 10 µM
